In patent US9096641B2, “Imidazolyl progesterone antagonists” (Evestra, Inc., priority 2013, dated 2015):

Experiments:
progesterone receptor = molecular target: T1, progesterone receptor (Homo sapiens, UniProt P06401); assay: Progesterone Antagonist Screen (SelectScreen cell-based nuclear receptor profiling, GeneBLAzer beta-lactamase reporter); settings: relative to RU486, which is 100%; progesterone receptor-LBD-UAS-bla HEK 293T cells; activated by control agonist R5020 at EC80
T1 construct: host or cells: HEK 293T
T1 sequence (P06401 679-913 limits assumed): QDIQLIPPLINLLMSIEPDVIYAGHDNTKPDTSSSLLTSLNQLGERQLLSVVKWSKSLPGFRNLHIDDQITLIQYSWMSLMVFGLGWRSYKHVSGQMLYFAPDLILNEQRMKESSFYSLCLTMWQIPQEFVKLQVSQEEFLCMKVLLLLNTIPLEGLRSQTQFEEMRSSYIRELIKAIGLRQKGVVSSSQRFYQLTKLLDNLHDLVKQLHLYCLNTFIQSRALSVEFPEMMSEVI
Method: (§1) Determination of the agonist/antagonist nature of the test compounds was carried out using Invitrogen's SelectScreen™ Cell-based nuclear receptor profiling service which uses the GeneBLAzer® Beta-lactamase reporter technology. Basically this assay uses a Beta-lactamase cDNA under transcriptional control of an Upstream Activator Sequence (UAS). The UAS is activated by the GAL4 transcription factor DNA binding domain (DBD), which is expressed as a fusion protein with the target receptor ligand binding domain (LBD). Upon ligand binding, the GAL4(DBD)-NR(LDB) binds to the UAS, which controls transcription of Beta-lactamase. Beta-lactamase cleaves a special engineered fluorescent substrate which results in a change in the measured fluorescence wavelength.
The generalized protocol used for the Progesterone Antagonist Screen, activated by control Agonist R5020 is as follows:
(§2) The progesterone receptor-LBD-UAS-bla HEK 293T cells are thawed and prepared as described above for the Agonist screen. 4 μL of a 10× serial dilution of control antagonist RU486 (starting concentration, 100 nM) or test compounds are added to appropriate wells of a TC-Treated assay plate. 32 μL of cell suspension is added to the wells which is then pre-incubated at 37° C./5% CO2 in a humidified incubator with test compounds and control antagonist titration for 30 min. 4 μL of a 10× control agonist (see above) at the predetermined EC80 concentration is added to wells containing the control antagonist or test compounds. The plate is incubated for 16-24 h at 37° C./5% CO2 in a humidified incubator. 8 μL of 1 μM Substrate Loading Solution is added to each well and the plate is incubated for 2 h at room temperature. The plate is then read on a fluorescence plate reader (Tecan Safire).

glucocorticoid receptor = molecular target: T2, glucocorticoid receptor (Homo sapiens, UniProt P04150); assay: Glucocorticoid Antagonist Screen (SelectScreen cell-based nuclear receptor profiling, GeneBLAzer beta-lactamase reporter); settings: relative to RU486, which is 100%; glucocorticoid receptor-LBD-UAS-bla HEK 293T cells; activated by control agonist Dexamethasone
T2 construct: host or cells: HEK 293T
T2 sequence (P04150 524-758 limits assumed): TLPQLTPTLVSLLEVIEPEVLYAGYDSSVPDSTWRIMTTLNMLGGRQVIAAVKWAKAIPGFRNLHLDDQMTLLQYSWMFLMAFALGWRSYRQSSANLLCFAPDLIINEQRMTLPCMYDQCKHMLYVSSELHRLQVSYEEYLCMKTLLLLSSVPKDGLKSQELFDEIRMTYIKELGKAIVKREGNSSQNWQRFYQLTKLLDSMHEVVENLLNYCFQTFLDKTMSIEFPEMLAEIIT
Method: as §1, §2
The generalized protocol for the Glucocorticoid Antagonist Screen activated by control Agonist Dexamethasone was carried out as described for the Progesterone Antagonist Screen with the exception that glucocorticoid receptor-LBD-UAS-bla HEK 293T cells were used. The control antagonist used for the glucocorticoid assay was also RU486.

| Progesterone Antagonist (%) (progesterone receptor) | Glucocorticoid Antagonist (%) (glucocorticoid receptor) | Compound |
| --- | --- | --- |
| 81 | 6 | CC(=O)c1ccc([C@H]2C[C@@]3(C)[C@@H](CC[C@@]3(O)C(F)(F)C(F)(F)F)[C@@H]3CCC4=CC(=O)CCC4=C32)cc1 [ZK 230211, reference compound] |
| 34 | 83 | C[C@]12C[C@H](c3ccc(-n4ccnc4)cc3)C3=C4CCC(=O)C=C4CC[C@H]3[C@@H]1CC[C@@]2(O)C#CC(F)(F)F [Ib, 11β-(4′-(1-imidazolyl)phenyl)-17β-hydroxy-17-(3,3,3-trifluoro-1-propynyl)-estra-4,9-diene-3-one] |
| 267 | 9 | C[C@]12C[C@H](c3ccc(-n4ccnc4)cc3)C3=C4CCC(=O)C=C4CC[C@H]3[C@@H]1CC[C@@]2(O)C(F)(F)C(F)(F)F [Ia, 11β-(4′-(1-imidazolyl)phenyl)-17β-hydroxy-17-(1,1,2,2,2-pentafluoroethyl)-estra-4,9-diene-3-one] |
| 54 | 31 | C[C@]12C[C@H](c3ccc(-n4ccnc4)cc3)C3=C4CCC(=O)C=C4CCC3C1CC[C@@]2(O)/C=C/C(F)(F)F (stereo partly drawn) [Ic, 11β-(4′-(1-imidazolyl)phenyl)-17β-hydroxy-17-(3,3,3-trifluoroprop-1(E)-enyl)-estra-4,9-diene-3-one] |
| 163 | 5 | C=C1CCOC12CCC1C3CCC4=CC(=O)CCC4=C3[C@@H](c3ccc(-n4ccnc4)cc3)C[C@@]12C (stereo partly drawn) [Ie, 11β-(4′-[1-imidazolyl]phenyl)-17,23-epoxy-19,24-dinor-17α-chola-4,9,20-triene-3-one] |
| 90 | 13 | C=CC(F)(F)[C@]1(O)CC[C@H]2[C@@H]3CCC4=CC(=O)CCC4=C3[C@@H](c3ccc(-n4ccnc4)cc3)C[C@@]21C [Id, 11β-(4′-(1-imidazolyl)phenyl)-17β-hydroxy-17-(1,1-difluoroprop-2-enyl)-estra-4,9-diene-3-one] |
